In patent US20220008355A1, “USE OF CAN[…] THE TREATMENT OF EPILEPSY” (GW Research Limited, priority 2018, published 2022):

What was measured:
[1] = tested on: seizures; settings: twelve institutionalized adult patients; 200 mg/day; cited from earlier work
[2] = tested on: epilepsy associated with GRIN2A mutation; experiment: Expanded access compassionate use case study of a child with GRIN2A mutation refractory epilepsy; type: in vivo, human
Description: Example 1 describes a case study of a child with a GRIN2A mutation that was provided highly purified cannabidiol as part of an expanded access treatment program of children with refractory epilepsy.
A child was enrolled in an expanded access compassionate use program for CBD. This subject was treated with a highly purified extract of cannabidiol (CBD) obtained from a cannabis plant. Frequency of seizures was recorded at each visit, as were reported quality of life changes, including mood, behaviour, and cognitive function.
The patient first presented with seizures. They experienced status epilepticus with myoclonic jerks and atypical absence seizures which lasted between 30 seconds to 15 minutes.
The patient had tried and failed 10 different anti-epileptic drugs, the ketogenic diet, vitamin B6 and vagus nerve stimulation however their seizures remained refractory.
Treatment with a highly purified CBD extract (greater than 98% CBD w/w) in sesame oil, of known and constant composition, at a dose of 5 mg/kg/day in addition to their baseline anti-epileptic drug (AED) regimen was commenced in September 2014 and has been ongoing for four years.
Laboratory testing for hematologic, liver, kidney function and concomitant AED levels was performed at baseline, and after every 4 weeks of CBD therapy.

[3] = Solubility of the drug substance in water; type: physicochemical
From the text: The drug substance, CBD is insoluble in water. Sesame oil was selected as an excipient to solubilize the drug substance.

[4] = tested on: seizures after administration of pro-convulsant drugs or an electric current; settings: mice; cited from earlier work
[5] = tested on: secondary generalized epilepsy; settings: of eight adult patients; cited from earlier work
[6] = tested on: seizures; settings: of four adult patients; 200 mg/day; cited from earlier work
[7] = tested on: Dravet syndrome; settings: Phase 3, Dravet syndrome; cited from earlier work
[8] = tested on: seizures; settings: rabbit, in vivo; cited from earlier work

Structure (SMILES) | Control of seizures [1] | Concomitant anti-epileptic drugs after treatment ([2]; after CBD treatment) | Cognitive function ([2]; after CBD treatment, patient now attends regular school and sports activities) | Seizure status since the start of treatment ([2]; one patient, CBD 5 up to 25 mg/kg/day added to baseline AEDs, four years of treatment) | EEG: posterior dominate rhythm, alpha activity ([2]; repeat EEG after treatment with CBD (FIG. 2)) [Hz] | EEG: epileptiform discharges ([2]; repeat EEG after treatment with CBD (FIG. 2), left frontal head region) | EEG: electrical status epilepticus during sleep ([2]; repeat EEG after treatment with CBD (FIG. 2), present at baseline) | Solubility in water [3] | Prevention of seizures [4] | Number of patients with marked reduction of seizures [5] | Number of patients who became seizure free [6] | Study outcome [7] | Convulsant liability [8]
C=C(C)[C@@H]1CCC(C)=C[C@H]1c1c(O)cc(CCCCC)cc1O [CBD, Cannabidiol] | ineffective | All AEDs have been stopped with the exception of clobazam and the VNS | significantly improved | seizure free | 9 | rare | no electrical status epilepticus during sleep | insoluble | able to prevent seizures | 4 | two | positive results | –
CCCCCc1cc(O)c2c(c1)OC(C)(C)[C@@H]1CCC(C)=C[C@@H]21 [THC, Tetrahydrocannabinol] | – | – | – | – | – | – | – | – | – | – | – | – | pro-convulsant
